In patent publication US20250129012A1, “ANTI-INFLAMMATORY AND ANALGESIC COMPOUNDS AND USE THEREOF” (JIANGSU ATOM BIOSCIENCE AND PHARMACEUTICAL CO., LTD., priority 2021, published 2025):
Where two headings read alike, the source gives them in different places. Marks after values point to notes of the source that are not given here.

Legend:
IL-6 = assay: Inflammatory factor experiment B: IL-6 in knee synovial tissue (ELISA); type: in vivo, SD rats; conditions: Rattus norvegicus, po, read-out: IL-6 percentage decrease %
IL-1β = assay: Inflammatory factor experiment B: IL-1β in knee synovial tissue (ELISA); type: in vivo, SD rats; conditions: Rattus norvegicus, po, read-out: IL-1β percentage decrease %
[1] = tested on: gouty arthritis rats (sodium urate, right ankle and knee joint cavities); assay: Pharmacodynamics experiment B on gouty arthritis rats: ankle swelling rate; type: in vivo, SD rats; conditions: Rattus norvegicus, po, read-out: Swelling rate (ankle)
Description: (§1) Compounds 12, 16, 19, 30, 34, 36, 38, 40, 44, 48, 49, 52, 58, 69, 83, 98, 102, 119, 121, and 122 were prepared by grinding with 0.5% CMC-Na prior to administration and formulated into suspensions of appropriate concentration (0.12 mg/mL) for gavage, with an administered dose of 0.5 mL/100 g.
(§2) 240 SD rats, males, were acclimatized for one week and weighed 180-220 g. […] The dose of each compound group was 0.6 mg/kg. The compounds in each group were prepared into the corresponding concentration suspension, and the volume of administration was 10 mL/kg.
(§3) 250 mg of sodium urate were added to 9 mL of saline, and 1 mL of Tween-80 solution was added, the resulting mixture was heated and stirred to formulate 10 mL of sodium urate solution. The rats were grasped and fixed, and 0.2 mL of sodium urate solution was injected into the right ankle and knee joint cavities respectively to establish gouty arthritis rat model.
(§4) Before modeling, positive drug and tested compounds were pre-administered for 7 days, once a day, and modeling was performed on day 8, and drug administration by gavage continued for 3 days after modeling.
Before modeling and 2 h, 4 h, 8 h, 10 h, 24 h and 48 h after modeling, the circumference of the right ankle joint was measured using a soft ruler or the volume change at the ankle was measured (volumetric method), and the swelling degree and swelling rate of ankle joint were calculated:
Swelling degree (mm)=measured circumference (mm)−baseline circumference (mm)
Swelling rate (%)=swelling degree (mm)/baseline circumference (mm)×100%
(§5) Each experimental data was expressed as the mean, and intergroup comparisons were examined for significance using the ANOVA-Dunnett T-test, with P<0.05 as the significance indicator.

TNF-α = assay: Inflammatory factor experiment B: TNF-α in knee synovial tissue (ELISA); type: in vivo, SD rats; conditions: Rattus norvegicus, po, read-out: TNF-α percentage decrease %
[2] = tested on: gouty arthritis rats (sodium urate, right ankle and knee joint cavities); assay: Pharmacodynamics experiment B on gouty arthritis rats: gait score; type: in vivo, SD rats; conditions: for Gait Score: dose 0.6 mg/kg gavage, mean; for Gait versus model group, in words: compounds 0.6 mg/kg, colchicine 0.6 and 1.2 mg/kg
Description: as §1, §2, §3, §4
Gait was scored according to the modified gait grading criteria introduced by Coderre et al. The gait of each rat was observed before and 2 h, 4 h, 8 h, 10 h, 24 h and 48 h after modeling and graded scoring was performed. The gait grading criteria were as follows: 0 point, normal walking; 1 point, slight lameness, the lower limbs were slightly bent; 2 points: moderate lameness, the lower limbs just touched the ground; 3 points, severe lameness, the lower limbs left the ground, and walked on three feet. The mean score of each group was calculated and compared with that of the model group.
as §5

ICR mice = assay: Acute toxicity test in mice by single administration; type: in vivo; conditions: 14 days, deaths/animals
Description: (§6) Compounds 34, 48, 55 and 58 were ground with 0.5% CMC-Na before administration, and prepared into a suspension of the corresponding concentration for gavage, with an administration volume of 0.1 mL/10 g.
(§7) ICR mice, SPF grade, weighing 18-20 g, 6-8 weeks old, were provided by Nantong University. The Laboratory Animal Production License was SCXK (Su) 2016-0010 and Laboratory Animal Use License was SYXK (Su) 2017-0035.
(§8) After overnight fasting, the drug was administered once by gavage in a volume of 0.1 mL/10 g. The normal group was given the corresponding volume of 0.5% CMC-Na solution according to body weight. The state of the animal was observed after administration, the animals were weighed daily and the number of deaths was recorded for 14 consecutive days.

[3] = as above; type: in vivo, ICR mice; conditions: both sexes, ICR, mouse, in vivo, po; acute toxicity, mice, single gavage; read-out: Maximum tolerated dose (MTD)
Description: as §6, §7, §8

[4] = synovial tissue of knee joints, 48 h after modeling, dose 0.6 mg/kg

SMILES	inhibition in vivo at 0.6 mg/kg (IL-6; 48 h) [%]	inhibition in vivo at 0.6 mg/kg (IL-1β; 48 h) [%]	change in vivo at 0.6 mg/kg ([1]; 2 h) [%]	change in vivo at 0.6 mg/kg ([1]; 4 h) [%]	change in vivo at 0.6 mg/kg ([1]; 8 h) [%]	change in vivo at 0.6 mg/kg ([1]; 10 h) [%]	change in vivo at 0.6 mg/kg ([1]; 24 h) [%]	change in vivo at 0.6 mg/kg ([1]; 48 h) [%]	inhibition in vivo at 0.6 mg/kg (TNF-α; 48 h) [%]	Gait Score ([2]; 2 h)	Gait Score ([2]; 4 h)	Gait Score ([2]; 8 h)	Gait Score ([2]; 10 h)	Gait Score ([2]; 24 h)	Gait Score ([2]; 48 h)	Gait versus model group, in words [2]	also measured
COc1cc2c(c(OC)c1OC)-c1ccc(C#N)c(=O)cc1[C@@H](NC(C)=O)CC2 [Compound 38, (S)—N-(10-cyano-1,2,3-trimethoxy-9-oxo-5,6,7,9-tetrahydrobenzo[a]heptalen-7-yl)acetamide]	69	102	6.34	12.6	10.4	17.9	16.9	6.71	86.6	0	0	0*	0*	0	0	significant improvement in gait occurred at different time points	–
CNC(=O)c1ccc2c(cc1=O)[C@@H](NC(C)=O)CCc1cc(OC)c(O)c(OC)c1-2 [Compound 121, (S)-7-acetamido-2-hydroxy-1,3-dimethoxy-N-methyl-9-oxo-5,6,7,9-tetrahydrobenzo[a]heptalen-10-carboxamide]	231	67.7	11.8	15.6	20.9	22.5	16.3	9.4	119	0	0	0.2	0.2	0	0	–	–
COC(=O)c1ccc2c(cc1=O)[C@@H](NC(C)=O)CCc1cc(OC)c(OC)c(OC)c1-2 [Compound 34, methyl (S)-7-acetamido-1,2,3-trimethoxy-9-oxo-5,6,7,9-tetrahydrobenzo[a]heptalen-10-carboxylate]	–	–	–	–	–	–	–	–	–	0	0	0**	0.1**	0	0	significant improvement in gait occurred at different time points	inhibition in vivo at 0.6 mg/kg (IL-6; [4]): 115%; inhibition in vivo at 0.6 mg/kg (IL-1β; [4]): 93.1%; Mortality rate (ICR mice; single gavage dose 50 mg/kg): 0/6; Mortality rate (ICR mice; single gavage dose 100 mg/kg): 0/6; Mortality rate (ICR mice; single gavage dose 400 mg/kg): 0/6; Mortality rate (ICR mice; single gavage dose 600 mg/kg): 0/6; MTD at 14 days [3]: > 600 mg/kg; change in vivo at 0.6 mg/kg ([1]; 2 h, dose 0.6 mg/kg gavage): 3.98%; change in vivo at 0.6 mg/kg ([1]; 4 h, dose 0.6 mg/kg gavage): 8.32%; change in vivo at 0.6 mg/kg ([1]; 8 h, dose 0.6 mg/kg gavage): 16.2%; change in vivo at 0.6 mg/kg ([1]; 10 h, dose 0.6 mg/kg gavage): 17.3%; change in vivo at 0.6 mg/kg ([1]; 24 h, dose 0.6 mg/kg gavage): 21.1%; change in vivo at 0.6 mg/kg ([1]; 48 h, dose 0.6 mg/kg gavage): 9.96%; inhibition in vivo at 0.6 mg/kg (TNF-α; [4]): 82.9%
CNC(=O)N[C@H]1CCc2cc(OC)c(OC)c(OC)c2-c2cc(C)c(OC)c(=O)cc21 [Compound 44, (S)-1-methyl-(1,2,3,10-tetramethoxy-11-methyl-9-oxo-5,6,7,9-tetrahydrobenzo[a]heptalen-7-yl)urea]	19.7	104	-9.72	-8.92	-6.13	-1.47	3.17	-6.2	72.6	0	0	0*	0*	0	0	–	–
COc1cc2c(c(OC)c1OC)-c1ccc(-c3cnn(C)c3)c(=O)cc1[C@@H](NC(C)=O)CC2 [Compound 119, (S)—N-{1,2,3-trimethoxy-10-(1-methyl-1H-pyrazol-4-yl)-9-oxo-5,6,7,9-tetrahydrobenzo[a]heptalen-7-yl}acetamide]	169	85.5	10.4	14.1	19.4	22.2	15.8	5.3	105	0	0	0.1*	0.4	0.	0	–	–
COc1cc2c(c(OC)c1OC)-c1ccc(-n3ccc(C)n3)c(=O)cc1[C@@H](NC(C)=O)CC2 [Compound 98, (S)—N-{1,2,3-trimethoxy-10-(3-methyl-1H-pyrazol-1-yl)-9-oxo-5,6,7,9-tetrahydrobenzo[a]heptalen-7-yl}acetamide]	167	65	7.9	13.4	16.4	17.7	19.7	8.9	98.9	0	0	0*	0*	0.1	0	significant improvement in gait occurred at different time points	–
COc1cc2c(c(OC)c1OC)-c1ccc(=O)c(O[C@H]3CCOC3)cc1[C@@H](NC(C)=O)CC2 [Compound 19, N—{(S)-1,2,3-trimethoxy-10-oxo-9-{[(S)-tetrahydrofuran-3-yl]oxy}-5,6,7,10-tetrahydrobenzo[a]heptalen-7-yl}acetamide]	98.1	81.5	8.77	10.9	17.1	14.1	19.4	7.77	84.7	0.0	0	0**	0**	0.2	0.1	significant improvement in gait occurred at different time points	–
